Measured values taken from ChEMBL document CHEMBL1201862, “PubChem BioAssay data set” (2004).
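Cultured in 96-well plates, cells were exposed to test compound for 48 hours across five concentrations. The concentration for 50% growth inhibition is given as GI50.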 Activity calls are given as the source filed them. No stated cut-off is given here; in the data, active = GI50 up to about 1.1 µM and inactive = higher. Where a SMILES comes first, the peptide text is derived from it. The star is where a group is joined. Boc = CC(C)(C)OC(=O)*; nBu = CCCC*

Tests used:
Assay in all cases: DTP human tumour cell line panel, 48 h
[1] = tested on: ACHN
[2] = tested on: CAKI-1
[3] = tested on: M14
[4] = tested on: MCF7
[5] = tested on: NCI-H23
[6] = tested on: OVCAR-3
[7] = tested on: OVCAR-5
[8] = tested on: RXF 393
[9] = tested on: SK-MEL-28
[10] = tested on: SK-OV-3
[11] = tested on: SNB-75
[12] = tested on: SR
[13] = tested on: SW-620
[14] = tested on: TK-10
[15] = tested on: COLO 205
[16] = tested on: IGROV-1
[17] = tested on: MOLT-4
[18] = tested on: Malme-3M
[19] = tested on: SK-MEL-5
[20] = tested on: 786-0

Measured: GI50

C#CCCCC(=C)C[C@H](OCc1ccccc1)[C@H]1OC(=O)[C@@H]1C
inactive: [1] 72.6 µM | [2] 14.9 µM | [3] 81.3 µM | [4] 37.2 µM | [5] 36 µM | [6] 31.3 µM | [7] > 100 µM | [8] > 100 µM | [9] > 100 µM | [10] > 100 µM | [11] > 100 µM | [12] 44.5 µM | [13] > 100 µM | [14] > 100 µM

Nc1ccc(OCC(O)N2C(=O)c3ccccc3C2=O)cc1 (stereo not given)
inactive: [1] > 100 µM | [15] > 100 µM | [16] > 100 µM | [3] > 100 µM | [4] > 100 µM | [17] > 100 µM | [18] > 100 µM | [6] > 100 µM | [7] > 100 µM | [9] > 100 µM | [19] > 100 µM | [10] > 100 µM | [12] > 10 µM | [13] 76.9 µM | [14] > 100 µM
active: [2] < 0.01 µM

COC(=O)Nc1nc2ccc(S(=O)(=O)SC)cc2[nH]1
inactive: [20] 5.09 µM | [1] 10.2 µM | [2] 4.88 µM | [15] 4.28 µM | [16] 3.37 µM | [3] 3.4 µM | [4] 4.94 µM | [17] 2.89 µM | [18] 9.89 µM | [6] 4.86 µM | [7] 11.6 µM | [8] 5.46 µM | [9] 8.28 µM | [19] 5.28 µM | [10] 8.39 µM | [12] 3.72 µM | [13] 3.73 µM | [14] 8.09 µM

COc1ccc(C(=O)Oc2c(C#N)sc3c2c(=O)n(-c2ccccc2)c(=S)n3-c2ccccc2)cc1
active: [12] < 0.01 µM
inactive: [20] 44.1 µM | [1] 40.7 µM | [2] 22.3 µM | [15] 25.8 µM | [16] 19.6 µM | [3] 20.3 µM | [4] 15 µM | [17] 21 µM | [5] 20.3 µM | [6] 20.3 µM | [7] 26.4 µM | [8] 21.8 µM | [9] 53.6 µM | [19] 21.6 µM | [10] 33.9 µM | [11] > 100 µM | [13] 32.7 µM | [14] 28 µM

CO/C=C(/C(=O)OC)[C@@H]1C[C@@H]1c1ccc2ccccc2c1
inactive: [20] 33.5 µM | [1] 25.9 µM | [2] 21.6 µM | [15] 18.3 µM | [16] 20.5 µM | [3] 22.8 µM | [4] 30.3 µM | [17] 16.4 µM | [18] 20.2 µM | [5] 28.2 µM | [6] 24.6 µM | [7] 97.5 µM | [8] 44.1 µM | [9] 23.4 µM | [19] 16.4 µM | [10] 22.2 µM | [12] 13.2 µM | [14] 37.5 µM

Cc1ccc(SCC(CF)OC(C)n2cnc3c(O)nc(N)nc32)cc1 (stereo not given)
inactive: [20] > 100 µM | [1] 55.6 µM | [2] > 100 µM | [15] > 100 µM | [16] > 100 µM | [3] > 100 µM | [4] 34.9 µM | [17] 50.5 µM | [18] > 100 µM | [5] 75.5 µM | [6] 88.7 µM | [7] > 100 µM | [9] > 100 µM | [19] 18.1 µM | [10] > 100 µM | [11] > 100 µM | [12] 98.4 µM | [13] > 100 µM | [14] > 100 µM

NC(=O)Cc1nc2c(N)ncnc2n1C1OC(CO)C(O)C1O (stereo not given)
inactive: [20] > 100 µM | [1] > 100 µM | [2] > 100 µM | [15] > 100 µM | [16] > 100 µM | [3] > 100 µM | [4] > 100 µM | [17] > 100 µM | [18] > 100 µM | [5] > 100 µM | [6] > 100 µM | [9] > 100 µM | [19] > 100 µM | [10] > 100 µM | [12] > 100 µM | [13] > 100 µM | [14] > 100 µM

C1=CN2C[n+]3ccc4ccccc4c3N=C2c2ccccc21
active: [4] 0.929 µM | [18] 0.632 µM | [6] 0.652 µM | [19] 0.308 µM | [12] 1.11 µM
inactive: [20] 2.88 µM | [1] 23.3 µM | [2] 15 µM | [15] 1.23 µM | [16] 3.74 µM | [3] 2.72 µM | [17] 1.91 µM | [5] 2.76 µM | [7] 16.1 µM | [10] 12.2 µM | [13] 4.02 µM | [14] 15.3 µM

CC[C@@]1(N(C)C)C(=O)OCc2c1cc1n(c2=O)Cc2cc3ccccc3nc2-1
inactive: [20] 25.8 µM | [1] 20.3 µM | [2] > 10 µM | [15] > 100 µM | [3] > 100 µM | [4] 32.1 µM | [18] 20.2 µM | [5] 16.6 µM | [6] 27.8 µM | [7] > 100 µM | [8] 13.7 µM | [9] > 100 µM | [19] 69.3 µM | [10] 18.7 µM | [11] 12.8 µM | [13] 32.1 µM | [14] 48.2 µM

OC1=C(c2ccccc2)C2=NCCN2c2ccccc21
inactive: [20] 42.5 µM | [1] 40.6 µM | [2] > 100 µM | [15] 47 µM | [16] 40.9 µM | [3] 57.8 µM | [4] 42.1 µM | [17] 46.8 µM | [5] 33.5 µM | [6] 18.2 µM | [7] 66.1 µM | [9] 79.6 µM | [19] 27.8 µM | [11] 23.1 µM | [12] 87.3 µM | [13] 78.7 µM | [14] 94 µM

CCOC(=O)C(CC(C)C)NC(=O)C(Cc1ccc(N(CCCl)CCCl)cc1)NC(C)=O (stereo not given)
inactive: [20] 2.02 µM | [1] 2.08 µM | [2] 1.29 µM | [15] 3.7 µM | [16] 11.2 µM | [3] 2.7 µM | [4] 3.69 µM | [18] 2.44 µM | [5] 4.24 µM | [6] 4.56 µM | [7] 12.7 µM | [8] 1.93 µM | [9] 5.64 µM | [19] 3.3 µM | [10] 15.8 µM | [11] 5.96 µM | [13] 7.73 µM | [14] 15.2 µM

C/C(=C1\C(=O)C(c2ccccc2)N(c2ccccc2)C1=O)c1ccc(Cl)cc1 (stereo not given)
inactive: [20] 18.3 µM | [1] 19.3 µM | [2] 24.4 µM | [15] 16.8 µM | [16] 18.7 µM | [3] 19.8 µM | [4] 35.1 µM | [17] 31.6 µM | [18] 19.7 µM | [5] 17.1 µM | [6] 15.6 µM | [8] 24 µM | [9] 16.3 µM | [19] 14.5 µM | [10] 16.7 µM | [12] 20.6 µM | [13] 22.8 µM | [14] 22 µM

CC(=O)On1c(-c2ccccc2-c2nc3ccccc3n2OC(C)=O)nc2ccccc21
inactive: [20] 46.6 µM | [1] 61.8 µM | [2] > 100 µM | [15] 16.7 µM | [16] 22.1 µM | [3] 33.8 µM | [4] 26.7 µM | [17] 11.3 µM | [18] 15.1 µM | [5] 7.48 µM | [6] 24.3 µM | [7] > 100 µM | [9] 29.3 µM | [19] 3.4 µM | [10] 55.1 µM | [11] 35.2 µM | [12] 19.1 µM | [13] 34.4 µM | [14] 68.1 µM

CC(C)C1=CC23CCC4C(C)(C(=O)O)CCCC4(C)C2CC1C1C(=O)N(CCCCCCN2C(=O)C4C5CC6C7(C)CCCC(C)(C(=O)O)C7CCC6(C=C5C(C)C)C4C2=O)C(=O)C13 (stereo not given)
inactive: [20] > 10 µM | [1] 10.9 µM | [15] > 10 µM | [3] 11 µM | [4] 6.76 µM | [17] 6.17 µM | [18] 16.7 µM | [5] 2.74 µM | [6] 13.9 µM | [7] 22.4 µM | [8] 14.2 µM | [9] 11.3 µM | [19] 14 µM | [12] 7.43 µM | [13] 15.9 µM | [14] 16.2 µM

CCCCOc1ccc(CC(NC(=O)OC(C)(C)C)C(=O)NC(C)C(=O)NC(Cc2ccccc2)C(=O)NCC(N)=O)cc1 (stereo not given) (Boc-Y(nBu)AFG-NH2; configuration not given here)
inactive: [20] > 100 µM | [1] > 100 µM | [2] > 100 µM | [15] > 100 µM | [16] 31.3 µM | [3] > 100 µM | [4] 41.1 µM | [17] 23 µM | [18] > 100 µM | [5] > 100 µM | [6] > 100 µM | [7] > 100 µM | [8] > 100 µM | [9] 91 µM | [19] > 100 µM | [10] > 100 µM | [11] > 100 µM | [13] > 100 µM | [14] > 100 µM

CO[C@@]12[C@H](COC(N)=O)C3=C(C(=O)C(C)=C(N)C3=O)N1C[C@@H]1N[C@@H]12 [MITOMYCIN]
inactive: [16] 2.9 µM | [6] 3.07 µM | [7] 1.36 µM | [8] 2.01 µM | [9] 1.75 µM | [14] 4.86 µM
active: [15] 1.02 µM | [4] 0.148 µM | [17] 0.23 µM | [18] 0.796 µM | [10] 1.02 µM | [12] 0.122 µM | [13] 0.485 µM
